# Molecular target: Substance-P receptor (Homo sapiens, UniProt P25103)
# Test: In vitro binding affinity against substance P (NK-1) receptor in human IM-9 cell using [125I]BH-SP
# Format: cell-based
# Substance-P receptor, sequence (P25103 whole entry): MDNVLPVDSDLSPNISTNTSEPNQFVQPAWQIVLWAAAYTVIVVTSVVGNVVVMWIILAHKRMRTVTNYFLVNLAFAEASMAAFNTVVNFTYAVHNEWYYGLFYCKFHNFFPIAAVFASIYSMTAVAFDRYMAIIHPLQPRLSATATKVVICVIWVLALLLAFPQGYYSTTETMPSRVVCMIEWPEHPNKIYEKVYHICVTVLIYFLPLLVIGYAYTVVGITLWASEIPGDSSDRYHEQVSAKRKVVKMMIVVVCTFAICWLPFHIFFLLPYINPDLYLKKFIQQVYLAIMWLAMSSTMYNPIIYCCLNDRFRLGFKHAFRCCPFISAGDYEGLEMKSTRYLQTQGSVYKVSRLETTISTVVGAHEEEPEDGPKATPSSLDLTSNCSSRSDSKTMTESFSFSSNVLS
row,Compound,Ki
1,COc1ccccc1[C@@H]1CC[C@@]2(CCCN[C@H]2c2ccccc2)NC1,2 nM
2,COc1ccccc1[C@@H]1CC[C@@]2(CCCN[C@H]2c2ccccc2)N1,> 10000 nM
